The results in this text go back to PMC8548882, “The Trp-rich Antimicrobial Amphiphiles With Intramolecular Aromatic Interactions for the Treatment of Bacterial Infection” (Frontiers in Microbiology, 2021).

Ends that are not written are not given here.

The test system of data set [1] is normal skin tissue. Kind of data set: Skin toxicity, TUNEL assay. To be noted: subcutaneous injection, 24h; VW5 5mg/kg; DMSO 100μl 100%.
Experimental: The potential toxicity of peptides to normal skin tissues was further tested by TUNEL assay ([Huang et al., 2009]). […] The 100μl 100% DMSO treatment served as a positive control, which was well-known for its toxicity to induce skin necrosis. Then, the skin samples were harvested and were subjected to TUNEL assay and counterstain with 4,6-diamidino-2-phenylindole (DAPI).
In data set [2] the test system is S.aureus 29213. The data set is classed as cell-based, Staphylococcus aureus ATCC 29213. To be noted: 29213. An excerpt: (§1) The tested strains were kindly provided by the laboratory of Veterinary Microbiology and Immunology, the College of Veterinary Medicine, Northeast Agricultural University (gram-negative bacteria, Salmonella enterica serovar typhimurium C77-31, Salmonella typhimurium ATCC 14028, Escherichia coli ATCC 25922, Pseudomonas aeruginosa ATCC 27853 and gram-positive bacteria, Staphylococcus aureus ATCC 29213, Staphylococcus aureus ATCC 43300, Staphylococcus epidermidis ATCC 12228, Staphylococcus aureus ATCC 25923).
(§2) The famous microtiter dilution, National Committee for Clinical Laboratory Standards, was adopted to measure the antimicrobial ability of the engineering peptides ([Chou et al., 2016]). In brief, the 50μl with serial dilution was incubated with the same volume bacteria (1×10^5CFU/ml in midi-logarithmic phase) in a 96-well plate 18–24h at 37°C. The positive control was the bacteria treated with culture medium and the negative control was merely culture medium. The MICs (minimum inhibitory concentrations) were defined as the lowest concentration of peptides that prevented the production of visible turbidity ([Tossi et al., 2000]).

In data set [3] the test system is S.aureus 25923. The format is cell-based, Staphylococcus aureus ATCC 25923. To be noted: 25923.
From the text: as §1, §2

Data set [4] deals with P.aeruginosa 27853. The format is cell-based, Pseudomonas aeruginosa ATCC 27853. To be noted: 27853.
From the text: as §1, §2

The subject of data set [5] is S.typhimurium 7731. The format is cell-based, Salmonella enterica serovar typhimurium C77-31.
From the text: as §1

Data set [6] has as its system IPEC-J2 cells. The data set is classed as cell-based, porcine. To be noted: IPEC-J2; ratio of IC50 to GM. As for the experimental part:
(§3) The MTT (3-[4,5 dimethylthiozol-2-yl]-2,5-diphenylterazoliumbromide) dye was selected to analyze the cytotoxicity of peptides against the murine macrophage cell RAW 264.7 (National Collection of Authenticated Cell Cultures, Shanghai, China), human embryonic kidneys (HK293T), and the porcine intestinal epithelial cells (IPEC-J2) as in our previously study ([Li et al., 2020]). In short, the cells (10^4 cells/well) were seeded into 96-well plates and were cultivated overnight. Then the peptides with different final concentration (2μM, 4μM, 8μM, 16μM, 32μM, 64μM, and 128μM) were introduced into the plate and challenged with cells for 24h. After overnight incubation, the 50μl MTT (0.5mg/ml) was added into the cell cultures for 4h. Then the plate was centrifuged to discard the supernatants and obtain the formazan crystals. The DMSO (dimethyl sulfoxide) was employed as a solvent to dissolve the formazan crystals on the bottom of the plate and the optical density was read at 492nm with a microplate reader.

Data set [7] has as its system hRBC, IPEC-J2, HEK 293T, RAW264.7. The procedure: Besides, the therapeutic index of peptide in the mammalian eukaryotic cell (RAW 264.7, HEK 293T, and IPEC J2) was also calculated to study the biocompatibility of peptides.
Data set [8] relates to RAW 264.7 cells. The format is cell-based, murine. To be noted: RAW264.7; ratio of IC50 to GM. The procedure:
as §3

The subject of data set [9] is HEK 293T cells. The format is cell-based, human. To be noted: ratio of IC50 to GM. The procedure: as §3
The test system of data set [10] is S.epidermidis 12228. The data set is classed as cell-based, Staphylococcus epidermidis ATCC 12228.
From the text: as §1

The subject of data set [11] is MRSA 43300. The format is cell-based, Staphylococcus aureus ATCC 43300. To be noted: microtiter dilution, 1×10^5CFU/ml, 18–24h at 37°C, visible turbidity.
From the text: as §1, §2

Data set [12] deals with E. coli 25922. The format is cell-based, Escherichia coli ATCC 25922.
From the text: as §1

The subject of data set [13] is human red blood cells (hRBCs). Kind of data set: Hemolytic activity. To be noted: for HC5 (MHC), lowest concentration that caused 5% hemolysis: hRBC in PBS pH 7.2, 1h at 37°C, absorbance 570nm, vs 0.1% Triton X-100, highest test concentration 128μM; for Therapeutic index (TI): hRBC, ratio of MHC to GM. The data set is classed as cell-based. The text has this: The hemolytic activity of peptides was reflected by the releasing amount of hemoglobin from erythrocytes lysis induced by peptides ([Dong et al., 2014a]). The informed consent was obtained from the volunteers (3 healthy 25-year-old male volunteers) before the experiment. In brief, the human red blood cells (hRBCs), donated by volunteer, were collected, washed, and resuspended in PBS at pH 7.2. The peptides were serially diluted in PBS at different concentrations in a 96-well cell cultures plate and incubated with 50μl hRBCs for 1h at 37°C. The 0.1% Trition X-100 was selected as the treatment of positive control and the negative control was the hRBCs treated with PBS. After 1h incubation, the supernatant, obtained by centrifuging the plate 1,000g for 5min, was transferred to a brand-new plate for absorbance detection at 570nm. The releasing amount of hemoglobin was converted to the percent hemolysis against to 0.1% Triton X-100 treatment. The lowest concentration caused 5% hemolysis of hRBCs and was defined as the lowest hemolytic concentration of antimicrobial peptide.

Data set [14] has as its system S.typhimurium 14028. The format is cell-based, Salmonella typhimurium ATCC 14028.
From the text: as §1

Data set [15] relates to panel of gram-negative and gram-positive bacteria. To be noted: over the eight strains of Table 2. As for the experimental part:
as §2

The subject of data set [16] is P. aeruginosa 27853. The format is cell-based, Pseudomonas aeruginosa ATCC 27853. To be noted: 27853. As for the experimental part: The famous microtiter dilution, National Committee for Clinical Laboratory Standards, was adopted to measure the antimicrobial ability of the engineering peptides ([Chou et al., 2016]). In brief, the 50μl with serial dilution was incubated with the same volume bacteria (1×10^5CFU/ml in midi-logarithmic phase) in a 96-well plate 18–24h at 37°C. The positive control was the bacteria treated with culture medium and the negative control was merely culture medium. […] The antimicrobial performance of peptides against P. aeruginosa 27853 cells was further studied under the complicated physiological conditions ([Lyu et al., 2016]). […] The serum was also taken into the consideration for the adverse impact on the antimicrobial effect of peptides.

In the case of `C[S+](C)[O-]` [DMSO, dimethyl sulfoxide], in data set [1], the “apoptotic cells in epidermal layer (TUNEL)” value is “heavy cell apoptosis”.

Take VKKLVKKAVKKLVKKA-NH2 [VL1]: the MIC in data set [2], in [3], in data set [4], in [5], in data set [10] and in [11] was above 64 µM in each case. Further, the MIC in data set [12], in data set [14] and in data set [16] was above 64 µM each time. In addition, the “Therapeutic index (TI)” value is listed as 58.65 in [6], 68.71 in data set [8], 75.40 in data set [9] and above 1.00 in [13]. Moreover, the “GMTI, geometric mean of TI of various cell lines” value in data set [7] was above 23.48. Moreover, the “HC5 (MHC), lowest concentration that caused 5% hemolysis” value in data set [13] was above 128 µM. Further, the “GMMIC, geometric mean of the MICs” value in data set [15] is 128.00 µM.

VKKWVKKAVKKWVKKA-NH2 [VW1]: the MIC in [2] was 64 µM; in data set [3] it was above 64 µM; in data set [4], 32 µM; in data set [5], above 64 µM; in [10] it was 64 µM; in data set [11] it was above 64 µM. Besides, the MIC in data set [12] and in [14] was 64 µM in each case. Further, the “Therapeutic index (TI)” value is recorded as 120.77 in data set [6], 87.91 in data set [8], 86.82 in data set [9] and above 1.68 in data set [13]. Also, the “GMTI, geometric mean of TI of various cell lines” value in data set [7] is above 35.28. For the same compound, the “HC5 (MHC), lowest concentration that caused 5% hemolysis” value in data set [13] was above 128 µM. Besides, the “GMMIC, geometric mean of the MICs” value in data set [15] turned out to be 76.11 µM.

By MIC is commonly meant the lowest concentration that inhibits growth of the organism.
